Measurements published in ChEMBL document CHEMBL3593236, “Cloning, characterization and anion inhibition studies of a new γ-carbonic anhydrase from the Antarctic bacterium Pseudoalteromonas haloplanktis” (Bioorg Med Chem, 2015).

Target: T1, Carbonic anhydrase (Methanosarcina thermophila, UniProt P40881)
T1 sequence (P40881 whole entry): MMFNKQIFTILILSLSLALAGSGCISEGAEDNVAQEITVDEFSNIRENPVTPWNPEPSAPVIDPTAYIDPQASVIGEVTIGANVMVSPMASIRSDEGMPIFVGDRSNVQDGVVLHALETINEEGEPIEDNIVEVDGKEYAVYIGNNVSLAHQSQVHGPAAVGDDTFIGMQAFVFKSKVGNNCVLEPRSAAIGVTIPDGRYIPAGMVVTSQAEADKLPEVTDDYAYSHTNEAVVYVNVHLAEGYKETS
Description: Inhibition of archaeon Methanosarcina thermophila gamma-CA after 15 mins by stopped-flow/Co2 hydration assay

## [Br-].[Na+] [SODIUM BROMIDE]
  Ki: 160 mM

## N#C[S-].[Na+] [THIOCYANATE SODIUM]
  Ki: 7 mM
